Measurements from publication PMC11355573, “A New Renieramycin T Right-Half Analog as a Small Molecule Degrader of STAT3” (Marine Drugs, 2024).

Experiments:
[1] = system: NSCLC cells (H292 and H460); test: Hoechst 33342/PI staining, percentage of dead cells in NSCLC; assay type: cell-based, human; details: 10 μM, 24 h
Protocol: Apoptosis is a crucial mechanism of cell death induced by anticancer drugs. We further analyzed the apoptosis induction effect of the potent small molecules, namely DH_28, DH_30, and DH_31. Nuclear morphology detected by the staining with nucleus-specific fluorescence dye Hoechst 33342 and cell-impermeable PI for necrotic detection was performed. Morphologic changes by means of condensed and/or fragmented nuclei were observed after 24 h of treatment (Figure 2D). […] Therefore, DH_31 was selected for further experiments.
Figure 2 The effect of RT right-half analogs on cytotoxicity in NSCLC and human normal lung epithelial (BEAS-2B) cell lines and apoptotic cell death in NSCLC cells. (A) NSCLC H292 and H460 cells were treated with derivatives of RT right-half analogs for 24 h and analyzed using MTT assay to assess cytotoxicity. (B) IC50 values for H292 and H460 cell lines were calculated. (C) BEAS-2B cells were treated with DH_28, DH_30, DH_31, and TM-(−)-18 for 24 h. The cytotoxic effects were evaluated using an MTT assay, and the IC50 values for BEAS-2B cells were determined. (D) H292 and H460 cells were seeded and treated with 0–10 μM of DH_28, DH_30, and DH_31 for 24 h. Hoechst 33342 and PI were used to stain the cell nuclei. Images were obtained under a fluorescence microscope. (E) The percentages of cell death were calculated based on the stained images in H292 and H460 cells. […]

[2] = system: ZO1, Slug, Snail, N-cadherin, Vimentin mRNA in H460 cells; test: mRNA of EMT markers by Real-time qPCR; assay type: cell-based, human; details: H460, 1 μM and 2.5 µM
Protocol: Therefore, the effect of DH_31 on targeting, the DNA-binding domain of STAT3, may represent an impact on downstream targets at the transcriptional level (Figure 8A). The expression levels of ZO1, Slug, Snail, N-cadherin, and Vimentin were analyzed using Real-time qPCR.
Quantitative Real-time PCR was performed to determine the effect of DH_31 on mRNA levels of STAT3 and EMT-related genes. H460 cells (4.0 × 10^5 cells per well) were seeded in 6-well plates. Following overnight incubation, the cells were treated with different concentrations of DH_31 (0–2.5 μM)) for 8 h at 37 °C. After treatment, total RNA was isolated using the RNeasy kit (Qiagen, Germany) and subsequently subjected to cDNA synthesis using qScript cDNA Supermix (Quanta bio, Beverly, MA, USA), following the manufacturers’ protocols. Real-time qPCR was performed using Luna Universal qPCR Master Mix (NEB, Ipswich, MA, USA) and the CFX 96 Real-time PCR system (Bio-Rad, Hercules, CA, USA). The expression of each cDNA was normalized to that of β-actin, and the comparative Ct method was used to obtain relative expression levels. The primers used for Real-time PCR are shown in the in the Supporting Information, Table S1. The list of primers.

[3] = system: BEAS-2B cells; test: MTT assay in non-tumorigenic bronchial epithelial cells (selectivity); assay type: cell-based; details: Homo sapiens, 24 h, read-out: BEAS-2B IC50 ± SD
Protocol: NSCLCs H292 and H460 were treated with various concentrations of derivatives of the RT right-half analog for 24 h. […] However, the IC50 values for DH_17, DH_20, DH_23, and DH_26 in H460 cells were greater than 100 μM. TM-(−)-18 was identified as a potent compound in a previous study. The structure of TM-(−)-18 was present in Figure 1A. […] To assess the selectivity of DH_28, DH_30, DH_31, and TM-(−)-18 in lung cancer cells, non-tumorigenic epithelial cell lines derived from human bronchial epithelial cells (BEAS-2B) were treated with DH_28, DH_30, DH_31, and TM-(−)-18 at various concentrations for 24 h.
Figure 2 The effect of RT right-half analogs on cytotoxicity in NSCLC and human normal lung epithelial (BEAS-2B) cell lines and apoptotic cell death in NSCLC cells. (A) NSCLC H292 and H460 cells were treated with derivatives of RT right-half analogs for 24 h and analyzed using MTT assay to assess cytotoxicity. (B) IC50 values for H292 and H460 cell lines were calculated. (C) BEAS-2B cells were treated with DH_28, DH_30, DH_31, and TM-(−)-18 for 24 h. The cytotoxic effects were evaluated using an MTT assay, and the IC50 values for BEAS-2B cells were determined. (D) H292 and H460 cells were seeded and treated with 0–10 μM of DH_28, DH_30, and DH_31 for 24 h. Hoechst 33342 and PI were used to stain the cell nuclei. Images were obtained under a fluorescence microscope. (E) The percentages of cell death were calculated based on the stained images in H292 and H460 cells. […] TEXT PRINTED IN THE PICTURE: (B) DH_17: IC50 ± SD (μM) H292: 20.50 ± 3.69; IC50 ± SD (μM) H460: > 100 | (B) DH_20: IC50 ± SD (μM) H292: 21.46 ± 3.77; IC50 ± SD (μM) H460: > 100 | (B) DH_23: IC50 ± SD (μM) H292: 17.50 ± 3.08; IC50 ± SD (μM) H460: > 100 | (B) DH_26: IC50 ± SD (μM) H292: 7.18 ± 2.39; IC50 ± SD (μM) H460: > 100 | (B) DH_28: IC50 ± SD (μM) H292: 9.56 ± 1.87; IC50 ± SD (μM) H460: 11.48 ± 1.87 | (B) DH_30: IC50 ± SD (μM) H292: 7.80 ± 2.30; IC50 ± SD (μM) H460: 4.51 ± 0.78 | (B) DH_31: IC50 ± SD (μM) H292: 5.54 ± 1.04; IC50 ± SD (μM) H460: 2.90 ± 0.58 | (B) TM-(–)-18: IC50 ± SD (μM) H292: > 100; IC50 ± SD (μM) H460: 7.89 ± 1.27 | (C) DH_28: BEAS-2B IC50 ± SD (μM): 16.46 ± 2.11 | (C) DH_30: BEAS-2B IC50 ± SD (μM): 5.50 ± 1.70 | (C) DH_31: BEAS-2B IC50 ± SD (μM): 6.51 ± 1.40 | (C) TM-(–)-18: BEAS-2B IC50 ± SD (μM): 7.25 ± 1.25 DOUBTS OF THE COPYIST ABOUT THIS PICTURE: Panel C, DH_28, IC50: small print, 16.46 ± 2.11 is the best reading; 6 could be 8 / Panel C, DH_30, IC50: small print, 5.50 ± 1.70 is the best reading; 5 could be 6 / Panel C, DH_31, IC50: small print, 6.51 ± 1.40 is the best reading; 6 could be 8 or 5 / Panel C, TM-(–)-18, IC50: small print, 7.25 ± 1.25 is the best reading

## COc1c(C)cc2c(c1O)[C@@H]1CN(Cc3ccc4ccccc4c3)[C@@H](C#N)[C@H](C2)N1C [DH_31, (1R,4R,5S)-10-hydroxy-9-methoxy-8,11-dimethyl-3-(naphthalen-2-ylmethyl)-1,2,3,4,5,6-hexahydro-1,5-epiminobenzo[d]azocine-4-carbonitrile]
[1]
  dead cells in NSCLC: 34–66%
[2]; 8 h (p < 0.01)
  ZO1 mRNA expression: significant increase
[2]; 8 h (p < 0.05)
  N-cadherin mRNA expression: significant reduction
  Slug mRNA expression: significant reduction
  Snail mRNA expression: significant reduction
  Vimentin mRNA expression: significant reduction
[3]
  IC50: 6.51 ± 1.4 µM
